According to US20260007684A1, “AMIDE DERIVATIVES FOR INHIBITING NLRP3 AND USES THEREOF” (Ventus Therapeutics U.S., Inc., priority 2023, published 2026):

What follows are compounds tested against human NLRP3 (Homo sapiens (Human), UniProt Q96P20) (assay: Scintillation Proximity (SPA) NLRP3 Assay: displacement of 3H-MCC950). Conditions: SPA IC50, displacement of 3H-MCC950.
Format: binding

Chain of human NLRP3 (Q96P20 whole entry): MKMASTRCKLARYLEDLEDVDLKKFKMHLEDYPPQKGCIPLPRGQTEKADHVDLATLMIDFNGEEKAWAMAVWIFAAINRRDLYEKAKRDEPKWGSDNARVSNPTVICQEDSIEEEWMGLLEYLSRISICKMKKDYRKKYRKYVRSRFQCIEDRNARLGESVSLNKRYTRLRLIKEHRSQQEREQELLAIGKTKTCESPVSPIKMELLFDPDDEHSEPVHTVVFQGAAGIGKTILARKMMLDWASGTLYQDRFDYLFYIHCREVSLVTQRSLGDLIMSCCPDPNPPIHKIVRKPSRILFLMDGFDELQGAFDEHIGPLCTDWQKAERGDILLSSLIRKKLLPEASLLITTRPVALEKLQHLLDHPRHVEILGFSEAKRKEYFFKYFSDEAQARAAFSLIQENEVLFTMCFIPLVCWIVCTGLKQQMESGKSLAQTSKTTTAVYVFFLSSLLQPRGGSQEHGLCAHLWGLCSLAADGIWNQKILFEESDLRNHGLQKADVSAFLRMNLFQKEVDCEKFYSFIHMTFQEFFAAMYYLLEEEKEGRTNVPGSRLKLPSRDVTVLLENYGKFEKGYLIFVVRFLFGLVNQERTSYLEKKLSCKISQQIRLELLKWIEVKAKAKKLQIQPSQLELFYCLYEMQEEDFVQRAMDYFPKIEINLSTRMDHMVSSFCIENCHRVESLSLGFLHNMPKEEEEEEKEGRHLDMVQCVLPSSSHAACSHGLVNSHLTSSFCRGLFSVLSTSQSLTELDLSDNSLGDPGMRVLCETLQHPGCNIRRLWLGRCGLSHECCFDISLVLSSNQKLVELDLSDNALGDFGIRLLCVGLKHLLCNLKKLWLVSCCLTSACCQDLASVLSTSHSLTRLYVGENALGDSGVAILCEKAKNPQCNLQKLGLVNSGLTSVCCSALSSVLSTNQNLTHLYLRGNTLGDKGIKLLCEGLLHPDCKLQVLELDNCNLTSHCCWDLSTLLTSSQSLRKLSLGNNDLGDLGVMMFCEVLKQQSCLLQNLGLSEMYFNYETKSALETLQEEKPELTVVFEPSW

Compound | IC50
O=C(N[C@H]1CCC[C@@H]2CC[C@H]1N2c1nnn[nH]1)C1(c2ccc(C3CC3)cc2O)CC1 [93B*, N-((1R,2S,6R)-9-(1H-tetrazol-5-yl)-9-azabicyclo[4.2.1]nonan-2-yl)-1-(4-cyclopropyl-2-hydroxyphenyl)cyclopropane-1-carboxamide] | 1 to 10 µM

Same assay, conditions: displacement of 3H-MCC950; read-out: SPA IC50

Compound | IC50
C[C@H]1CCN(c2nnn[nH]2)C[C@@H](NC(=O)C2(c3cc(F)c(Cl)cc3O)CC2)C1 (single isomer, unassigned) [29D*, 1-(4-chloro-5-fluoro-2-hydroxyphenyl)-N-(5-methyl-1-(1H-tetrazol-5-yl)azepan-3-yl)cyclopropane-1-carboxamide] | 10 to 50 µM
C[C@@H]1CCN(c2nnn[nH]2)C[C@@H](NC(=O)C2(c3ccc(C4CCC4)cc3)CC2)C1 (single isomer, unassigned) [8B*, 1-(4-cyclobutylphenyl)-N-(5-methyl-1-(1H-tetrazol-5-yl)azepan-3-yl)cyclopropane-1-carboxamide] | 10 to 50 µM
C[C@@H]1CCN(c2nnn[nH]2)C[C@@H](NC(=O)C2(c3ccc(OC(F)F)cc3F)CC2)C1 (single isomer, unassigned) [3B*] | 1 to 10 µM
C[C@@H]1C[C@H](NC(=O)C2(c3ccc(Cl)cc3)CC2)[C@H]2CC[C@@H]1N2c1nnn[nH]1 [80B*, 1-(4-chlorophenyl)-N-((1R,2S,4R,5S)-4-methyl-8-(1H-tetrazol-5-yl)-8-azabicyclo[3.2.1]octan-2-yl)cyclopropane-1-carboxamide] | 10 to 50 µM
C[C@H]1C[C@@H](NC(=O)C2(c3ccc(C(F)(F)F)cc3)CC2)[C@@H]2CC[C@H]1N2c1nnn[nH]1 [79C*, N-((1S,2R,4S,5R)-4-methy1-8-(1H-tetrazol-5-yl)-8-azabicyclo[3.2.1]octan-2-yl)-1-(4-(trifluoromethyl)phenyl)cyclopropane-1-carboxamide] | 10 to 50 µM
C[C@@H]1CCN(c2nnn[nH]2)C[C@@H](NC(=O)C2(c3ccc(Cl)c(F)c3F)CC2)C1 (single isomer, unassigned) [4B*, 1-(4-chloro-2,3-difluorophenyl)-N-(5-methyl-1-(1H-tetrazol-5-yl)azepan-3-yl)cyclopropane-1-carboxamide] | 10 to 50 µM
Cc1c(Cl)ccc(C2(C(=O)N[C@H]3C[C@@H](C)CCN(c4nnn[nH]4)C3)CC2)c1O (single isomer, unassigned) [21D*, 1-(4-chloro-2-hydroxy-3-methylphenyl)-N-(5-methyl-1-(1H-tetrazol-5-yl)azepan-3-yl)cyclopropane-1-carboxamide] | 10 to 50 µM
C[C@H]1C[C@H](NC(=O)C2(c3ccc(OC(F)F)cc3)CC2)[C@@H]2CC[C@H]1N2c1nnn[nH]1 (single isomer, unassigned) [35D*] | 10 to 50 µM
O=C(N[C@H]1C[C@@H](C(F)(F)F)[C@@H]2CC[C@H]1N2c1nnn[nH]1)C1(c2ccc(Cl)cc2)CC1 (single isomer, unassigned) [103B*] | > 100 µM
C[C@H]1CCN(c2nnn[nH]2)C[C@H](NC(=O)C2(c3ccc(C4CC4)cc3)CC2)C1 (single isomer, unassigned) [2C*] | 10 to 50 µM
C[C@]1(NC(=O)C2(c3ccc(Cl)cc3)CC2)CCCN(c2nnn[nH]2)C1 (single isomer, unassigned) [11B*, 1-(4-chlorophenyl)-N-(3-methyl-1-(1H-tetrazol-5-yl)piperidin-3-yl)cyclopropane-1-carboxamide] | > 100 µM
C[C@H]1C[C@H](NC(=O)C2(c3ccc(Cl)cc3)CC2)[C@@H]2CC[C@H]1N2c1nnn[nH]1 [80D*, 1-(4-chlorophenyl)-N-((1S,2S,4S,5R)-4-methyl-8-(1H-tetrazol-5-yl)-8-azabicyclo[3.2.1]octan-2-yl)cyclopropane-1-carboxamide] | 50 to 100 µM
C[C@H]1CCN(c2nnn[nH]2)C[C@H](NC(=O)C2(c3cc(F)c(C(F)(F)F)cc3F)CC2)C1 (single isomer, unassigned) [7C*, 1-(2,5-difluoro-4-(trifluoromethyl)phenyl)-N-(5-methyl-1-(1H-tetrazol-5-yl)azepan-3-yl)cyclopropane-1-carboxamide] | 50 to 100 µM
C[C@H]1C[C@@H](NC(=O)C2(c3ccc(C4CC4)c(F)c3O)CC2)[C@@H]2CC[C@H]1N2c1nnn[nH]1 [83C*, 1-(4-cyclopropy1-3-fluoro-2-hydroxyphenyl)-N-((1S,2R,4S,5R)-4-methy1-8-(1H-tetrazol-5-yl)-8-azabicyclo[3.2.1]octan-2-yl)cyclopropane-1-carboxamide] | > 100 µM
C[C@H]1CCN(c2nnn[nH]2)C[C@H](NC(=O)C2(c3ccc(Cl)cc3Cl)CC2)C1 (single isomer, unassigned) [55C*] | 50 to 100 µM

Further lines, results first:

IC50 | Compound
1 to 10 µM | C[C@H]1CCN(c2nnn[nH]2)C[C@@H](NC(=O)C2(c3ccc(OC(F)F)cc3)CC2)C1 (single isomer, unassigned) [58D*]
< 1 µM | C[C@H]1CC[C@@H](NC(=O)C2(c3ccc(C4CC4)cc3O)CC2)CN(c2nnn[nH]2)C1 (single isomer, unassigned) [91A*]
10 to 50 µM | C[C@@H]1C[C@@H](NC(=O)C2(c3ccc(Cl)cc3)CC2)CN(c2nnn[nH]2)C1 [Compound 46C, 1-(4-chlorophenyl)-N-[(3R,5R)-5-methyl-1-(1H-tetrazol-5-yl)-3-piperidyl]cyclopropanecarboxamide]
1 to 10 µM | C[C@@H]1CCN(c2nnn[nH]2)C[C@@H](NC(=O)C2(c3ccc(OC(F)(F)F)cc3)CC2)C1 (single isomer, unassigned) [57B*]
50 to 100 µM | C[C@H]1CCN(c2nnn[nH]2)C[C@H](NC(=O)C2(c3ccc(Cl)cc3F)CC2)C1 (single isomer, unassigned) [56C*]
1 to 10 µM | C[C@H]1C[C@@H](NC(=O)C2(c3ccc(C(F)(F)F)nc3O)CC2)CN(c2nnn[nH]2)C1 [Compound 24A, 1-(2-hydroxy-6-(trifluoromethyl)pyridin-3-yl)-N-((3R,5S)-5-methyl-1-(1H-tetrazol-5-yl)piperidin-3-yl)cyclopropane-1-carboxamide]
50 to 100 µM | Cc1ccc(C2(C(=O)N[C@@H]3C[C@@H](C)CCN(c4nnn[nH]4)C3)CC2)cc1 (single isomer, unassigned) [71C*]
1 to 10 µM | C[C@@H]1CC[C@H](NC(=O)C2(c3ccc(Cl)cc3O)CC2)CN(c2nnn[nH]2)C1 (single isomer, unassigned) [90D*]
50 to 100 µM | O=C(NC1CC(C2CC2)CN(c2nnn[nH]2)C1)C1(c2ccc(Cl)cc2)CC1 (single isomer, unassigned) [Rac-13B*/C*, 1-(4-chlorophenyl)-N-(5-cyclopropyl-1-(1H-tetrazol-5-yl)piperidin-3-yl)cyclopropane-1-carboxamide]
50 to 100 µM | C[C@H]1CCN(c2nnn[nH]2)C[C@H](NC(=O)C2(c3cnc(Cl)cc3O)CC2)C1 (single isomer, unassigned) [99C*]
> 100 µM | C[C@H]1CCN(c2nnn[nH]2)C[C@@H](NC(=O)C2(c3ccc(Cl)nc3O)CC2)C1 (single isomer, unassigned) [100D*]
< 1 µM | C[C@H]1CC[C@H](NC(=O)C2(c3ccc(C4CC4)cc3O)CC2)CN(c2nnn[nH]2)C1 (single isomer, unassigned) [91B*]
> 100 µM | C[C@H]1CCN(c2nnn[nH]2)C[C@H](NC(=O)C2(c3c(F)cc(Cl)cc3F)CC2)C1 (single isomer, unassigned) [72C*]

Same assay, conditions: read-out: SPA IC50

IC50 | Compound
> 500 µM | Cn1nnnc1-c1cccc(NC(=O)C2(c3ccc(Cl)cc3)CC2)c1 [Comparative Example E1, 1-(4-chlorophenyl)-N-(3-(1-methyl-1H-tetrazol-5-yl)phenyl)cyclopropane-1-carboxamide, reference compound]
